Laboratory results reported in paper PMC11823381, “Identification of novel inhibitors of dengue viral NS5 RNA-dependent RNA polymerase through molecular docking, biological activity evaluation and molecular dynamics simulations” (Journal of Enzyme Inhibition and Medicinal Chemistry, 2025).
Several values for one entry are separate records, joined by “and”; a condition that tells them apart may be missing. Identical values can stand only once. Like-named read-outs stand apart in the source and are kept apart here.

How the values were obtained:
[1] = Cytotoxicity (CC50) in the cell-based assay; conditions: hamster, BHK-21 cells
Experimental: (§1) In this study, the DENV2 NGC strain (provided by Robert B. Tesh, University of Texas Medical Branch) and BHK-21 cells (Baby hamster kidney cells, ATCC CCL10) were used for cell-based antiviral evaluations. Viral stocks were prepared by infecting C6/36 cells (Aedes albopictus clone C6/36; ATCC CRL166), cultured in RPMI 1640 medium (Invitrogen, Burlington, ON, Canada) containing 2% foetal bovine serum (FBS) (Sigma-Aldrich, Shanghai, China) and 0.5% penicillin-streptomycin. The infected cultures were incubated at 28 °C with 5% CO2 for seven days until cytopathic effects (CPE) were detected. Supernatants were collected by centrifuging at 2,000 g for 5 min to remove debris, mixed with 20% FBS, and stored in aliquots at −80 °C. Viral titres were quantified using the Promega Viral ToxGlo assay (Fisher Scientific, Ottawa, ON, Canada) on BHK-21 cells, and the 50% tissue culture infective dose (TCID50) was determined following the manufacturer’s instructions. To test antiviral activity, BHK-21 cells were seeded in 96-well plates at 2,500 cells per well using Dulbecco’s modified Eagle’s medium (DMEM) with 10% FBS and 1% penicillin-streptomycin. After overnight incubation at 37 °C, cells were exposed to 100 TCID50 of DENV for 90 min. Following infection, the medium was replaced with DMEM supplemented with 2.5% FBS and different concentrations of the test compounds. Cultures were maintained at 37 °C with 5% CO2 for 3 days. Fresh Viral Tox reagent was prepared, and 100 μL was added to each well before incubating the plates for at least 10 min. Luminescence readings were taken using a 1450 MicroBeta TriLux scintillation counter (PerkinElmer). Data were analysed by plotting luminescence values against logarithmic compound concentrations, and nonlinear regression was carried out using GraphPad Prism 10.0 software.

DENV2 NGC strain = assay: Cell-based antiviral assay (Viral ToxGlo, CPE) against DENV-NGC; set-up: species or system dengue virus (DENV2); conditions: for IC50: mean ± SD of two individual experiments; for SI (selectivity index): ratio of CC50 to IC50
Experimental: as §1

[2] = Dengue virus, DENV2, BHK-21, 72 h, BHK-21 cells, 100 TCID50 of DENV, 3 days, read-out: DENV-NGC-IC50
[3] = BHK-21 cells, 100 TCID50 of DENV, 3 days, read-out: DENV-NGC-IC50
[4] = Dengue virus, DENV2, BHK-21, 72 h, read-out: DENV-NGC-IC50, BHK-21 cells, 100 TCID50 of DENV, 3 days

Compound | CC50 at 3 days [1] [µM] | IC50 (DENV2 NGC strain; [2]) [µM] | SI (selectivity index) (DENV2 NGC strain) | IC50 (DENV2 NGC strain; [3]) | IC50 (DENV2 NGC strain; [4]) [µM]
Nc1ncnc2c([C@@H]3N[C@H](CO)[C@@H](O)[C@H]3O)c[nH]c12 [BCX4430, Galidesivir, reference compound] | 100 ± 12.5 | 41.6 ± 2.95 | 2.40 |  | 
COc1cccc(S(=O)(=O)NC(=O)c2cc(-c3ccc(C#CCO)s3)c(OC)cc2OC)c1 [Compound 27, reference compound] | 26.9 ± 3.02 | 19.7 ± 1.12 | 1.37 |  | 
CN(Cc1ccccc1)C(=O)c1snc2c(=O)n(Cc3ccccc3)c(=O)[nH]c12 [Compound D1] | 37.5 ± 2.03 | 13.1 ± 1.17 | 2.87 |  | 
CCCC[C@@](CCC(=O)O)(C(=O)OCC)c1csc(Nc2ccc(C)cc2)n1 [Compound D3] |  | > 66.7 |  |  | 
O=C(CCSc1nc(-c2ccc3c(c2)OCO3)cc(C(F)(F)F)n1)NCCN1CCOCC1 [Compound D4] |  | > 200 |  |  | 
O=C(Cn1c(=O)sc2ccccc21)Nc1nnc(SCc2ccccc2)s1 [Compound D5] | > 200 |  |  | 28.5 µM and > 66.7 µM | 
NC(=O)C1CCN(C(=O)CCCSc2nc(-c3ccco3)cc(C(F)(F)F)n2)CC1 [Compound D6] |  | > 200 |  |  | 
O=C(Cn1c(=O)sc2ccccc21)Nc1nnc(SCC(=O)N2CCOCC2)s1 [Compound D7] |  | > 200 |  |  | 
O=C(Nc1ccc(F)cc1F)N1CCC[C@@H]1c1nc2cc(-c3ccccc3F)ccc2o1 [Compound D8] | 99.2 ± 1.93 | 14.8 ± 7.76 | 6.71 |  | 
CC(=O)Nc1ccc(S(=O)(=O)N[C@]2(C(F)(F)F)NC(=O)N(c3ccc(Cl)cc3)C2=O)cc1 [Compound D9] |  | > 200 |  |  | 
Cc1ccc(NC(=O)[C@@H]2[C@H]3C(=O)N(C[C@@H]4CCCO4)[C@H](C(=O)NC4CCCCC4)[C@]34C=C[C@H]2O4)cc1 [Compound D10] |  | > 200 |  |  | 
Cc1[nH]c2ccccc2c1C(=O)C(=O)NC[C@@H]1COc2ccccc2O1 [Compound D11] | 87.3 ± 2.75 |  |  |  | > 66.7
O=C1C[C@@H](NCCc2c[nH]c3ccccc23)C(=O)N1c1ccc(Oc2ccccc2)cc1 [Compound D12] | 163 ± 14.1 | 47.3 ± 11.8 | 3.45 |  | 
NC(=O)COc1ccc([C@@H]2CC(=O)Nc3nc(SCc4ccc(Cl)cc4)[nH]c(=O)c32)cc1 [Compound D14] | > 200 |  |  | 31.2 µM and > 200 µM | 
CCOc1c(Nc2ccc(C#N)cc2)c(=O)c1=O [Compound D15] |  | > 200 |  |  | 
O=C(COc1ccccc1)Nc1nnc(SCc2cc(=O)n3cc(Cl)ccc3n2)s1 [Compound D16] |  | > 200 |  |  | 
C[C@@H](Sc1nnc2c3ccccc3nc(-c3ccccc3)n12)C(=O)NC[C@H]1CCCO1 [Compound D17] | 53 ± 10.5 | 22.2 ± 7.25 | 2.38 |  | 
O=C(O)CCCNC(=O)Cn1nc2c(cc1=O)CCCCC2 [Compound D18] |  | > 200 |  |  | 
O=c1c2ccccc2[nH]c(=S)n1C[C@H]1CC[C@H](C(=O)NC[C@@H]2COc3ccccc3O2)CC1 [Compound D19] |  | > 200 |  |  | 
CN(c1ccccc1)c1nc(=O)n(CC(=O)Nc2ccc(Br)cc2)c2ccccc12 [Compound D21] |  | > 200 |  |  | 
N#Cc1ccc(C(=O)N2CCC[C@H]2c2nc(CCOCC3CC3)no2)cc1 [Compound D23] | > 200 | 123 |  | > 200 µM | 
O=C([C@@H]1C[C@H](Oc2ccccc2)CN1C(=O)CCc1nc2ccccc2s1)N1CCCC1 [Compound D24] | > 200 |  |  |  | > 66.7
O=C(O)[C@H](NC(=O)[C@@H]1CC=CC[C@H]1C(=O)c1ccccc1)c1ccccc1 [Compound D26] |  | > 200 |  |  | 
